Data taken from patent US11427604B2 (Mindset Pharma Inc., priority 2020, dated 2022).

How the values were obtained:
[1] = In vivo pharmacokinetics in male C57BL/6 mice; design: species or system mouse; settings: for AUC(0-t): read-out: AUC0-tlast; for half-life: read-out: Apparent t1/2 (converted); for MRT inf: read-out: MRT0-inf
Experimental: (§1) Male C57BL/6 mice (25-30 g) and male Sprague-Dawley rats (250-325 g) from Charles River Labs were acclimatized for a minimum of 5 days prior to dosing. Body weights were recorded on the day of dosing.
(§2) Animals dosed p.o. were deprived of food overnight and fed ˜2 h following dosing.
(§3) Formulations were administered intravenously (i.v.) via the tail vein or orally (p.o.) by gavage with disposable feeding needles.
(§4) Serial blood samples were collected via tail snip. Terminal blood samples were collected under isoflurane anesthesia by cardiac puncture.
(§5) All blood samples were transferred into K2EDTA tubes on wet ice and centrifuged within 5 min (3200×g for 5 min at 4° C.) to obtain plasma. Plasma was stored at −80° C. until analysis.
(§6) Mouse or rat plasma, as applicable.
(§7) AB Sciex QTRAP 4000 or 6500 MS/MS system equipped with an LC system with a binary pump, a solvent degasser, a thermostated column compartment and a multiplate autosampler. i. Analysis software: Phoenix® WinNonlin® 8.2 (Pharsight, Certara, Mountainview, Calif.) ii. Analysis methods: non-compartmental analysis, linear up/log down trapezoidal rule iii. PK parameters: C0, t1/2, AUC0-tlast, AUC0-∞, CL, VSS, MRT, tmax(po), Cmax(po), F, as appropriate

[2] = Rat liver microsomes stability with NADPH
[3] = In vivo pharmacokinetics in male Sprague-Dawley rats; design: species or system rat; settings: for AUC(0-t): read-out: AUC0-tlast; for MRT inf: read-out: MRT0-inf; for half-life: read-out: Apparent t1/2 (converted)
Experimental: as §1, §2, §3, §4, §5, §6, §7

[4] = Human liver microsomes stability with NADPH
Experimental: The objective of this study was to estimate in vitro metabolic stability of 1-45 in pooled human and male mouse liver microsomes. The concentrations of exemplary compounds in reaction systems were evaluated by LC-MS/MS for estimating the stability in pooled human and male mouse liver microsomes. The in vitro intrinsic clearances of test compounds were determined as well.
A master solution in the “Incubation Plate” containing phosphate buffer, ultra-pure H2O, MgCl2 solution and liver microsomes was made according to Table --. The mixture was pre-warmed at 37° C. water bath for 5 minutes.
40 μL of 10 mM NADPH solution was added to each well. The final concentration of NADPH was 1 mM. The negative control samples were prepared by replacing NADPH with 40 μL of ultra-pure H2O. Samples were prepared in duplicate. Negative controls were prepared in singlet.
The reaction was started with the addition of 4 μL of 200 μM test compounds or control compounds to each master solution to get the final concentration of 2 μM. This study was performed in duplicate.
Aliquots of 50 μL were taken from the reaction solution at 0, 15, 30, 45 and 60 minutes. The reaction solutions were stopped by the addition of 4 volumes of cold methanol with IS (100 nM alprazolam, 200 nM imipramine, 200 nM labetalol and 2 μM ketoprofen). Samples were centrifuged at 3,220 g for 40 minutes. Aliquot of 90 μL of the supernatant was mixed with 90 μL of ultra-pure H2O and then was used for LC-MS/MS analysis.
LC/MS analysis was performed for all samples from this study using a Shimadzu liquid chromatograph separation system equipped with degasser DGU-20A5R; solvent delivery unit LC-30AD; system controller SIL-30AC; column oven CTO-30A; CTC Analytics HTC PAL System. Mass spectrometric analysis was performed using an Triple Quad™ 5500 instrument.
All calculations were carried out using Microsoft Excel. Peak area ratios of test compound to internal standard (listed in the below table) were determined from extracted ion chromatograms.
All calculations were carried out using Microsoft Excel. Peak areas were determined from extracted ion chromatograms. The slope value, k, was determined by linear regression of the natural logarithm of the remaining percentage of the parent drug vs. incubation time curve.
Conversion of the in vitro t1/2 (min) into the in vitro intrinsic clearance (in vitro CLint, in μL/min/mg proteins) was done using the following equation (mean of duplicate determinations):
[formula] […] Results & Discussion

[5] = mouse, plasma, iv, i.v. 1 mg/kg
[6] = mouse, plasma, po, p.o. 10 mg/kg
[7] = p.o. 3.0 mg/kg per title (dose row prints 10)
[8] = rat, plasma, iv, i.v. 0.3 mg/kg
[9] = rat, plasma, po, p.o. 3.0 mg/kg per title (dose row prints 10)
[10] = rat, plasma, sc, s.c. 0.3 mg/kg

[2H]C([2H])([2H])N(C([2H])([2H])[2H])C([2H])([2H])C([2H])([2H])c1c[nH]c2cccc(O)c12 [Compound I-45, 3-(2-(bis(methyl-d3)amino)ethyl-1,1,2,2-d4)-1H-indol-4-ol]
AUC0-inf/Dose ([1]; i.v. 1 mg/kg): 181 ± 30.8 kg·ng·h/mL/mg
AUC(0-inf) [1, 5]: 181 ± 30.8 ng·h/mL
clearance [1, 5]: 94 mL/min/kg
AUC(0-t) [1, 5]: 178 ± 32.2 ng·h/mL
half-life [1, 5]: 5.32 ± 2.99 h
MRT inf [1, 5]: 1.49 ± 0.536 h
Vd ([1]; mouse, plasma, iv, i.v. 1 mg/kg, read-out: Vss): 8.34 ± 3.15 L/kg
AUC(0-inf) [1, 6]: 795 ± 121 ng·h/mL
Cmax [1, 6]: 704 ± 128 ng/mL
bioavailability [1, 6]: 44 ± 6.7%
AUC(0-t) [1, 6]: 792 ± 120 ng·h/mL
half-life [1, 6]: 4.52 ± 0.481 h
MRT inf [1, 6]: 2 ± 0.227 h
AUC0-inf/Dose ([1]; p.o. 10 mg/kg): 79.5 ± 12.1 kg·ng·h/mL/mg
Cmax/Dose ([1]; p.o. 10 mg/kg): 70.4 ± 12.8 kg·ng/mL/mg
Remaining Percentage (%) after 60 min ([2]; Rat, with NADPH, 2 μM): 3.34%
half-life at 2 μM ([2]; rat, microsomes): 0.204 h
microsomal CLint at 2 μM ([2]; rat, microsomes): 113 µL/min/mg
AUC0-inf/Dose ([3]; i.v. 0.3 mg/kg): 181 ± 30.8 kg·ng·h/mL/mg
AUC(0-inf) ([3]; i.v. 0.3 mg/kg): 117 ± 11.5 ng·h/mL
Apparent t1/2 ([3]; i.v. 0.3 mg/kg): 34.6 ± 3.17 h
AUC0-inf/Dose [3, 7]: 181 ± 14.6 kg·ng·h/mL/mg
Cmax/Dose [3, 7]: 79.2 ± 24.4 kg·ng/mL/mg
clearance [3, 8]: 143 mL/min/kg
AUC(0-t) [3, 8]: 35.2 ± 3.45 ng·h/mL
MRT inf [3, 8]: 1.49 ± 0.536 h
Cmax [3, 9]: 238 ± 73.3 ng/mL
Tmax [3, 9]: 0.333 ± 0.144 h
bioavailability [3, 9]: 155 ± 12.4%
AUC(0-inf) ([3]; rat, plasma, po, p.o. 3.0 mg/kg per title (dose row prints 10), read-out: AUC0-inf): 543 ± 43.7 ng·h/mL
AUC(0-t) [3, 9]: 534 ± 38.7 ng·h/mL
half-life [3, 9]: 2.61 ± 0.795 h
MRT inf [3, 9]: 2.77 ± 0.486 h
Cmax [3, 10]: 30.2 ± 12.2 ng/mL
Tmax [3, 10]: 0.278 ± 0.21 h
bioavailability [3, 10]: 125 ± 30.4%
AUC(0-inf) ([3]; rat, plasma, sc, s.c. 0.3 mg/kg, read-out: AUC0-inf): 35.9 ± 8.71 ng·h/mL
AUC(0-t) [3, 10]: 32 ± 9.2 ng·h/mL
half-life [3, 10]: 0.647 ± 0.212 h
MRT inf [3, 10]: 0.991 ± 0.228 h
AUC0-inf/Dose ([3]; s.c. 0.3 mg/kg): 120 ± 29.0 kg·ng·h/mL/mg
Cmax/Dose ([3]; s.c. 0.3 mg/kg): 101 ± 40.7 kg·ng/mL/mg
Remaining Percentage (%) after 60 min ([4]; Human, with NADPH, 2 μM): 73.65%
half-life at 2 μM ([4]; human, microsomes): 2.27 h
microsomal CLint at 2 μM ([4]; human, microsomes): 10.2 µL/min/mg
